Consider three compounds from paper PMC7603451, “A novel human pluripotent stem cell-based assay to predict developmental toxicity” (Archives of Toxicology, 2020).

Like-named read-outs stand apart in the source and are kept apart here. Some results are limits rather than exact numbers.

Data set [1] has as its system BIONi010-C hiPSC embryoid bodies differentiating into cardiomyocytes. Kind of data set: PluriBeat assay, beat score of EBs, BIONi010-C. How it is done:
(§1) Cardiac differentiation was performed as published (Fischer et al. [2018]) with slight modifications. Briefly, hiPSC were harvested from culture dishes with good colony morphology (day 5–6 after split) by removing medium and adding Gibco™ TrypLE™ Select (Thermo Fisher Scientific) for 1–2 min. As soon as single cells appeared at the borders of the colonies, TrypLE was removed by suction and the cells harvested as single cells in mTeSR-ROCK (mTeSR1 with 10 µM Y27632 dihydrochloride). Cells were counted and 5 × 10^4 cells/ml were seeded at 100 µl per well into a 96-well Polystyrene Conical Bottom MicroWell™ Plate (249,952, Thermo Fisher Scientific). The plates were centrifuged at 500g for 5 min at room temperature. After 20 h of incubation, EBs had formed (one EB per well) and cardiac differentiation was induced by exchanging 80 µl medium to D0 medium. All medium recipes are included in supplementary Table 1. After 24 ± 2 h, 80 µl medium was exchanged to TS medium. After 24 ± 2 h, 80 µl medium were exchanged to Wnt medium. After 24 ± 2 h, 80 µl medium was exchanged with TS medium. Three days later (72 ± 2 h), 60 µl medium was exchanged with 80 µl fresh TS medium added per well. The following day beating of the cardiomyocyte containing EBs was scored.
(§2) Test compounds were added to the specific daily differentiation medium before medium exchange on the 96-well plates. Vehicle was kept constant across the plates at 0.1%. Thirty-two EBs were exposed to each concentration in each experiment. On the last day of the assay, the beat score was determined as follows: Each EB was observed until contraction was seen, though for a maximum of 10 s. If no movement was seen, the beat score 0 was given. If the entire area of the sphere contracted, a beat score of 2 was given. Everything in between was given a score of 1.
(§3) The beat score for each condition was determined as the average beat score of the 32 EBs. All experiments were performed in biological triplicates if not stated otherwise. For gene expression analysis and compound testing, data from 32 EBs (= 32 wells each containing one EB) were analyzed for a given concentration or time point.
(§4) IC25 values were defined as absolute IC25 values giving the concentration that inhibits the beat score by 25%. […] Calculations were based on the beat score of > 90 EBs from three independent experiments per cell line.
(§5) The following analysis was performed in the statistical program R-studio: To analyze the impact of the test compounds on the beat score, we performed an ordinal logistic regression using the polr package in R with beat score and concentration as factors on n ≥ 90 EBs from three biological replicates. The LOEC was defined as the lowest observable effect concentration of test compound causing an effect with a p value < 0.05.

Data set [2] deals with IMR90-1 hiPSC embryoid bodies differentiating into cardiomyocytes. As to the kind of experiment: PluriBeat assay, beat score of EBs, IMR90-1. How it is done: as §1, §2, §3, §4, §5
Data set [3] deals with IMR90-4 hiPSC embryoid bodies differentiating into cardiomyocytes. As to the kind of experiment: PluriBeat assay, beat score of EBs, IMR90-4. Particulars: for effect on beat score: up to maximum concentration tested. How it is done: as §1, §2, §3, §4, §5
For data set [4], the system named is BIONi010-C hiPSC grown in monolayer. Kind of data set: Cytotoxicity, CellTiter-Glo 2.0 ATP-based cell viability assay. The arrangement: species or system human. Conditions: for concentration showing cytotoxicity: human, 48 h. How it is done: Before initiating tests on cardiomyocyte differentiation for test chemicals, cell viability was determined to ascertain that any further testing was done at non-cytotoxic concentrations. On the day of the experiment, 50 µl/well hESC-Qualified Matrigel (354,277, Corning) was added to flat-bottom 96-well plates (Corning) and incubated at 37 °C and 95% humidity until use. BIONi010-C hiPSC were harvested from a […] by Gibco™ TrypLE™ Select (Thermo Fisher Scientific) and a single-cell suspension was prepared in mTeSR™1 serum-free medium (STEMCELL Technologies). Matrigel was removed from plates and a final concentration of 1 × 10^4 cells/well was added. After 24 h, mTESR1 medium was exchanged for fresh medium. Cell were exposed to the test chemicals after another 24 h and for 48 h in total with a vehicle kept constant across the plates at 0.1%. […] Assay reagent (100 µl/well) was added, plates were left on a shaker table for 2 min and successively for 10 min at room temperature. Lysates were transferred to white plates and luminescence was measured (EnSpire, Perkin Elmer).

The next data set has as its system BIONi010-C EBs. As to the kind of experiment: EB volume after exposure, BIONi010-C. Type of data set: cell-based, human. How it is done: (§6) The average of 32 EBs per condition was analyzed. […] EB size was analysed using a one-way ANOVA without matching and multiple comparisons with Dunnett’s correction.
The subject of a further data set is IMR90-1 EBs. As to the kind of experiment: EB volume after exposure, IMR90-1. Particulars: for concentration with effect on EB volume: IMR90-1, last day of assay. The format is cell-based, human. How it is done:
as §6

The subject of a further data set is IMR90-4 EBs. As to the kind of experiment: EB volume after exposure, IMR90-4. The format is cell-based, human. Conditions: for concentration with effect on EB volume: IMR90-4, last day of assay. How it is done:
as §6

Data set [5] concerns EBs made from the three cell lines BIONi010-C, IMR90-1, and IMR90-4. As to the kind of experiment: PluriBeat assay, statements without a named cell line. How it is done:
as §2
For analysis of the EB size, the EBs were imaged with a light microscope after assessing the beat score. The plates were left at room temperature to decrease the beat rate before imaging, thereby decreasing the risk of false small outliers due to contractions. The images were further analyzed with ImageJ, where the diameter of the individual EBs was measured manually. From this, the volume of each EB was calculated and the average of the controls on each plate set to 100% to calculate the volume (%) for the exposed EBs. The average of 32 EBs per condition was analyzed.

The next data set concerns mouse ESCs. Conditions: cited from earlier work.
Data set [6] deals with in vitro assays for developmental toxicity. Conditions: previous in vitro developmental toxicity studies, cited from earlier work.
For data set [7] the following is noted: cited from earlier work.
Another data set concerns rat embryos. The arrangement: method as in Rettie et al. [1986]. Conditions: ex vivo rat embryos, gestation day 10; ref Rettie et al. [1986]; cited from earlier work.
A further data set has as its system hiPSC. Particulars: cited from earlier work.
Another data set has as its system hESCs. The arrangement: method as in Kameoka et al. [2014]. Conditions: hESC monolayer, 3 days; ref Kameoka et al. [2014]; cited from earlier work.
The mark [8] stands for this setting: IMR90-4, beat score on last day of assay, lowest concentration with p < 0.05.
Where [9] appears, read: human, 8 days (beat score read on the last day of the assay).

For the compound `Fc1ccc([C@]2(Cn3cncn3)O[C@H]2c2ccccc2Cl)cc1` (racemic) [Epoxiconazole, epoxiconazole], the LOEC in data set [1] (BIONi010-C, beat score on last day of assay, lowest concentration with p < 0.05) worked out at 5 µM; in data set [2] (IMR90-1, beat score on last day of assay, lowest concentration with p < 0.05), 1.3 µM; in [3] (setting [8]) it was 1.3 µM. Moreover, the “concentration at which EBs stopped beating” value in [2] (human, 7 days) is listed as 2.5 µM; in [3] (human, 7 days), 2.5 µM. In data set [4], the concentration showing cytotoxicity is reported as ≥ 50 µM. The results for the “effect on EB volume” value with BIONi010-C EBs, with IMR90-1 EBs and with IMR90-4 EBs were “significantly smaller spheres”, “non-significant trend” and “significantly smaller spheres”, respectively. In addition, the “lowest concentration decreasing the beating (LOEC)” value in data set [5] (beat score, cell line not stated) is 1.3 µM. Besides, in data set [5] (setting [9]), the “proportion of beating cardiac EBs” value is ~0%. In the data set on mouse ESCs, the “embryotoxicity in the mEST” value was “weakly embryotoxic”. In addition, the IC50 with mouse ESCs (mEST based on mouse ESCs, ref Dreisig et al. [2013]) was 34 µM.
With `CCCC(CCC)C(=O)O` [Valproic acid, valproic acid], the “effect on beat score” value is “did not lead to a significant decrease in beat score” in data set [1] (BIONi010-C, up to maximum concentration tested); “did not lead to a significant decrease in beat score” in data set [2] (IMR90-1, up to maximum concentration tested); “did not lead to a significant decrease in beat score” in [3] (IMR90-4). Moreover, the “IC25 (absolute inhibition concentration of 25%) with 95% confidence intervals” value is listed as > 300 µM in data set [1] (human, 7 days); > 300 µM in [2] (human, 7 days); > 300 µM in data set [3] (human, 7 days). Further, the LOEC in data set [1] (human, 7 days) is on record as > 300 µM; in data set [2] (human, 7 days), > 300 µM; in [3] (human, 7 days) it was > 300 µM. Further, in data set [4] (BIONi010-C monolayer, 48 h exposure, 400 µM), the reduction of viability result is “more than 20%”. Besides, the concentration showing cytotoxicity entry in data set [4] is reported as “above 300 µM”. In the data set on BIONi010-C EBs (BIONi010-C, last day of assay), the “effect on EB volume” value is recorded as “did not lead to apparent effects”. Also, the entries for the “concentration with effect on EB volume” value in the data set on IMR90-1 EBs and with IMR90-4 EBs were 200 µM and 300 µM, respectively. In addition, the IC50 in data set [6] (ref Aikawa et al. [2014], Shinde et al. [2016]) was 868 to 1000 µM; in [6] (ref Uibel et al. [2010], Palmer et al. [2013], Kameoka et al. [2014], Aikawa [2020]), 3 to 205 µM. Also, in data set [7] (human, ref Dasgupta [2016]), the therapeutic serum levels entry was “around 700 µM”. Further, in the data set with rat embryos, the “concentration with toxic effects” value was 800 µM.
Take `O=C1CCC(N2C(=O)c3ccccc3C2=O)C(=O)N1` (stereo not shown) [Thalidomide, thalidomide]: the LOEC in data set [1] (human, 7 days) was 2.3 µM; in data set [2] (human, 7 days), 2.3 µM; in data set [3] (setting [8]), “no LOEC could be determined”; in data set [3] (human, 7 days), > 36 µM. Also, the “effect on beat score” value in data set [3] (IMR90-4) was “non-significant trend”. Further, the “IC25 (absolute inhibition concentration of 25%) with 95% confidence intervals” value in [3] (human, 7 days) is on record as > 36 µM. Further, the effect on viability result in data set [4] (BIONi010-C monolayer, 48 h exposure, 25, 50, 100 and 200 µM) is reported as “did not reduce viability in any of the concentrations tested”. Also, the concentration showing cytotoxicity in data set [4] was > 200 µM. The “concentration with significant decrease in EB volume” value in the data set with BIONi010-C EBs (BIONi010-C, last day of assay) is given as ≥ 2.3 µM. The “concentration with effect on EB volume” value is on record as ≥ 2.3 µM in the data set on IMR90-1 EBs and ≥ 18 µM in the data set on IMR90-4 EBs. Further, the “decrease of EB volume” value in data set [5] (human, 7 days, 2.3 µM) is ~60%. For the same compound, the “lowest concentration decreasing the beating (LOEC)” value in data set [5] (setting [9]) was determined as 2.3 µM. In addition, the IC50 in the data set on hiPSC (original EST protocol, ref Aikawa et al. [2014]) is 450 µM; in the data set with hiPSC (ref Aikawa [2020]), 5.5 µM; with hESCs it was 0.5 µM. In addition, the “clinical plasma concentrations for therapeutic use” value in data set [7] (human, ref Chung et al. [2004], Kodama et al. [2009]) was 1 to 6 µM. Further, in data set [7] (regular dose for pregnant women of 200 mg, ref Teo et al. [2004]), the internal exposure was 4.7 µM.

By IC50 is commonly meant the concentration that gives 50% inhibition.
